Experimental data from US12115182B2, “Adenosine A2A agonists for the treatment of cytokine storm syndrome” (priority 2021, dated 2024).
“Also recorded” adds a separate entry of the source.

Tests used:
[1] = test system: SARS-CoV-2 strain B.1.351; assay type: in vivo, Golden Syrian hamster
[2] = test system: BAL fluid cytokines and chemokines; assay: BAL fluid cytokines/chemokines (31 plex Luminex) in SARS CoV-2-infected K18-hACE2 mice; assay type: in vivo, mouse
Procedure: Apadenoson treatment elicits cytokine and chemokine responses that are associated with a decrease in weight loss. To assess how apadenoson treatment may be delaying the onset of severe symptoms, mice were treated as before with either vehicle (saline) or apadenoson, delivered with a five-hour delay by osmotic pumps, then euthanized on day five post-infection.
BAL Cytokines: BAL fluid was collected with 700 μL of PBS and cells were removed via centrifugation. The BAL fluid was analyzed by a Luminex Magpix by the UVA Flow Cytometry Core facility using a Mouse 31 plex panel. Statistical changes in cytokine levels were analyzed using Welch's ANOVA followed by Dunnett's T3 multiple comparisons (Graphpad Prism 9.0). P values were adjusted for multiple testing using the Holm-Sidak method.

SARS CoV-2 [3] = assay: Viral lung titers (plaque assay) and viral burden (IHC) in K18-hACE2 mice; assay type: in vivo, mouse
Procedure: Viral Lung titers: Titers were determined as described in Moreau et al. (MOREAU et al., Am. J. Trop. Med. Hyg., (2020), 103:1215-1219). Briefly, lungs were homogenized in serum-free DMEM. Titers were determined by infecting Vero C1008, Clone E6 (ATCC CRL-1586) with serial dilutions of the homogenate. After a two-hour incubation, the diluted homogenates were replaced with a liquid overlay of DMEM, 2.5% FBS containing 1.2% Avicel PH-101 (Sigma Aldrich, St. Louis, MO) and incubated at 37° C., 5% CO2. After three days, the overlay was removed, wells were fixed with 10% formaldehyde, and stained with 0.1% crystal violet to visualize plaques. Plaques were counted and PFUs were calculated according to the following equation: Average # of plaques/dilution factor×volume of diluted virus added to the well.
Histology: Tissues were fixed in 10% formalin. To visualize virus in the lungs, slides were stained with SARS-CoV2 specific anti-nucleoprotein antibody (Cat. No. 9099, ProSci, Poway, CA) as per manufacturer's instructions and then scanned at 20× magnification. The percentage of lung tissue infected with virus was calculated (ImageJ, version 1.53K).

MHS cells = assay: RAGE shedding in alveolar macrophages (MHS): Western blot of sRAGE, immunofluorescence of RAGE; assay type: cell-based, mouse; conditions: GM6001 2 nM, regadenoson 100 nM; for PMA-induced shedding of cell membrane-anchored RAGE: PMA-treated MHS cells, ATL146e 10 nM
SARS CoV-2 [4] = assay: Apadenoson in K18-hACE2 mouse model of COVID-19: survival, weight, clinical scores; conditions: for mice survived (combined survival data): Alzet pump 1.44 ug/kg/h, 1250 PFU
Procedure: K18-hACE2 mice, ranging in age from 17 to 30 weeks were divided into three groups. One group received saline (vehicle), another received apadenoson 18 hours before viral challenge (drug) and a third received apadenoson five hours post viral challenge (drug with delay). The mice were challenged intranasally with 1250 PFU SARS CoV-2. Mouse weight and clinical scores were recorded daily. Mice were euthanized when they met the criteria for euthanasia (see methods) or at the end of the experiment, which was day 12 post viral challenge.
Infection and treatment: Twenty-four hours prior to infecting Tg(K18-hACE2)2Prlmn (Jackson Laboratories) male mice with SARS CoV-2, primed 7-day Alzet® osmotic pumps (Durect, Cuperton, CA) containing saline or drug were implanted subcutaneously (MCCRAY et al., J. Virol., (2007), 81:813-821). In the drug with delay treatment group drug delivery was delayed by 24 hours by adding 2.5 cm long tubing to the pump. Apadenoson was delivered at a rate of 1.5 μg/kg/hr. Uninfected littermates received saline or drug with delay via osmotic pumps. Mice were challenged with 1250 plaque forming units (PFU) of Hong Kong/VM20001061/2020 (NR-52282, BEI Resources) via intranasal route under ketamine/xylazine anesthesia. Mice were examined twice daily for clinical symptoms and scored using the following criteria: weight loss (0-5, in 5% of initial weight loss increments), reduced activity (0-3), ruffled fur appearance and hunched posture (0-2), and an eye closure (0-2). Mice were euthanized when weight was <80% of initial weight or when they scored a maximum in two symptom categories. This experiment was repeated three times, with six animals per treatment group each time. […] Statistical differences in weight loss and clinical scores by treatment group were determined using linear mixed models accounting for day post-infection and the day the mouse died (Ime4 and ImerTest packages (BATES et al., J. Stat. Softw., (2015), 67; KUZNETSOVA et al., J. Stat. Softw., (2021), 82) in R (R Core Team 2021). For mice surviving to the end of the experiment (day 12 post-infection), day of death=15 was used. All mouse work was approved by the University's Institutional Animal Care and Use Committee and all procedures were performed in the University's certified animal Biosafety Level Three laboratory, which is fully accredited by the Association for the Assessment and Accreditation of Laboratory Animal Care, International (AAALAC).

COVID-19 patients = conditions: cited from earlier work
[5] = PI day 7, compared to control group
[6] = drug with delay treatment group
[7] = drug and drug with delay-treated groups

CCNC(=O)[C@H]1O[C@@H](n2cnc3c(N)nc(C#CC[C@H]4CC[C@H](C(=O)OC)CC4)nc32)[C@H](O)[C@@H]1O [Apadenoson]
albumin leakage into BAL [1, 5]: slight decrease; also recorded: did not significantly | plasma IL13 [1, 5]: slightly elevated; also recorded: did not significantly | time course of the disease or viral titer detected in throat swabs ([1]; RT-qPCR): did not significantly | plasma IL4 ([1]; compared to control): depressed; also recorded: did significantly | decrease in weight gain ([1]; daily weights, vs control group): did not significantly | histologic distribution or severity of lung pathology ([1]; day 7): did not significantly | plasma Transforming Growth Factor beta (TGFb) ([1]; day 7, compared to control): decreased; also recorded: did significantly | spread of virus to olfactory bulb (brain) ([1]; day 7, compared to control): decreased; also recorded: did significantly | respiratory physiology parameters (EF50, Rpef, Penh) ([1]; whole body plethysmography, PI day 7): did not significantly | cytokines/chemokines not different between uninfected, vehicle-infected control and drug with delay-infected mice ([2]; BAL fluid, day five post-infection): 18/31 | levels of eight cytokines and chemokines (MIG, G-CSF, Eotaxin, MIP1b, VEGF, INF-g, TNF-a, KC) in BAL fluid [2, 6]: not significantly different from uninfected mice | IP-10 level in BAL fluid ([2]; drug with delay-infected group compared to vehicle, p=0.0223): statistically higher | MCP-1 level in BAL fluid ([2]; drug with delay-infected group compared to vehicle, p=0.0351): statistically higher | viral titers in lungs of surviving mice (SARS CoV-2 [3]; both drug treatment groups): below the limit of detection | average viral titer of lung homogenates (SARS CoV-2 [3]; [6]): trended lower, but was not significant; also recorded: trended lower | viral burden in lungs by IHC staining (SARS CoV-2 [3]; drug with delay treatment group, p=0.0012): significantly lower | PMA-induced shedding of cell membrane-anchored RAGE (MHS cells): partially inhibited | PMA-induced shedding of cell membrane-anchored RAGE (MHS cells; listed as apadensoson): suppressed the shedding of RAGE | clinical scores compared to vehicle (SARS CoV-2 [4]; [7]): statistically significantly lower | weight loss compared to vehicle (SARS CoV-2 [4]; [7]): less weight loss | weight loss and clinical scores on day five post-infection (SARS CoV-2 [4]; drug with delay vs vehicle): not statistically different between groups | mice survived (combined survival data) (SARS CoV-2 [4]; drug with delay): 5/12 | survival curve compared to vehicle (SARS CoV-2 [4]; drug with delay-treated group, p=0.0002): significantly different than vehicle | mice survived (combined survival data) (SARS CoV-2 [4]; drug with no delay): 4/12 | survival curve compared to vehicle (SARS CoV-2 [4]; drug-treated group, p=0.066): did not differ significantly

CNC(=O)[C@H](Cc1c[nH]c2ccccc12)NC(=O)[C@@H](CC(=O)NO)CC(C)C [GM6001]
sRAGE shedding on LPS-treated MHS cells (MHS cells; LPS 75 ng/ml, apadenoson 10 nM): inhibited sRAGE shedding | levels of sRAGE in the conditional media (Western blot) (MHS cells; PMA (20 nM)-treated MHS cells, 24 hours): decreased | PMA-induced shedding of cell membrane-anchored RAGE (MHS cells): suppressed the shedding of RAGE; also recorded: partially blocked

Nc1ncnc2c1ncn2[C@@H]1O[C@H](CO)[C@@H](O)[C@H]1O [adenosine]
increase in PaO2/FiO2-ratio (COVID-19 patients; aerosolized, twice daily, in 13 out of 14 patients): > 30% | death rate (COVID-19 patients; inhaled adenosine group, 1/14, control group 11/52 (21%)): 7%
